Earlier results, collected in patent publication US20200367500A1, “MICROCAPSULES WITH BIOCIDES FOR THEIR INCORPORATION INTO REPELLENT AND/OR INSECTICIDE COATINGS” (priority 2019, published 2020).
“Also recorded” adds a separate entry of the source. Read-outs that look alike come from different tables or passages of the source.

Details: for Decomposition time (Mean life): aqueous medium; for Stability in aqueous medium, in words: pH as stated in the value

Row | Compound | Stability in aqueous medium, in words | Decomposition time (Mean life) (pH 9) | also measured
1 | CCOP(=S)(OCC)Oc1nc(Cl)c(Cl)cc1Cl [Chlorpyrifos] | Stable in neutral and slightly |  | Decomposition time (Mean life) (pH 10): 7 days
2 | CC1(C)C(C=C(Cl)Cl)C1C(=O)OC(C#N)c1cccc(Oc2ccccc2)c1 (centres unmarked) [Cypermethrin] |  | 7 days | 
3 | C=CCC1=C(C)C(OC(=O)C2C(C=C(C)C)C2(C)C)CC1=O [D-allethrin] | Stable at pH 5 after 31 days | (4.3 days) | Decomposition time (Mean life) (pH 7): 500 days
4 | CC1(C)[C@H](C(=O)O[C@H](C#N)c2cccc(Oc3ccccc3)c2)[C@@H]1C=C(Br)Br [Deltamethrin] | more stable in medium acid solutions |  | Decomposition time (Mean life) (pH 7): 0.33 days
5 | CCOP(=S)(OCC)Oc1cc(C)nc(C(C)C)n1 [Diazinon] |  | 136 days | Decomposition time (Mean life) (pH 5): 31 days; Decomposition time (Mean life) (pH 7.5): 185 days
6 | O=C(NC(=O)c1c(F)cccc1F)Nc1ccc(Cl)cc1 [Diflubenzuron] | Stable in a pH range from 5 to 7; also recorded: Hydrolyzed at pH 9 |  | 
7 | CCOC(=O)CC(SP(=S)(OC)OC)C(=O)OCC (centres unmarked) [Malathion] | Quickly hydrolyzed at pH over 7. The optimal pH |  | 
8 | CC1(C)C(C=C(Cl)Cl)C1C(=O)OCc1cccc(Oc2ccccc2)c1 (centres unmarked) [Permethrin] | Stable at pH between 5 and 6. |  | 
9 | CCN(CC)c1nc(C)cc(OP(=S)(OC)OC)n1 [Pirimiphos-methyl] |  |  | Decomposition time (Mean life) (pH 5): 7 days; Decomposition time (Mean life) (pH 8): 5 days
10 | CC(COc1ccc(Oc2ccccc2)cc1)Oc1ccccn1 (centres unmarked) [Pyriproxifen] | Stable in pH between 4 and 9. |  | 
